Our source for the TGI and GI50 values is PubChem BioAssay (NCI).

“And” between values parts separate entries of the source, which are not always exact repeats. Equal values may be shown once.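 In this assay, cells in 96-well plates receive the compound at five concentrations for 48 hours. Endpoints are linearly interpolated between the surrounding concentrations. Abbreviation: GI50, concentration required for 50% inhibition of growth. TGI denotes the concentration required for complete inhibition of growth.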

Some test systems named below: BT-549 breast; DMS 273 small cell lung; DU-145 prostate; HCT-116 colon; KM20L2 colon; M19-MEL melanoma; MCF7 breast; PC-3 prostate; T-47D breast; HOP-18 NSCLC.
Test in all cases: NCI tumour cell line growth inhibition, 48 h

On to `CNCCCNc1c2ccccc2nc2cccc([N+](=O)[O-])c12`, for which the TGI with BT-549 breast is 0.0101 µM; in the assay on DMS 273 small cell lung, 0.0465 µM; in the assay on DU-145 prostate, 0.0192 µM; in the assay on HCT-116 colon it was 0.017 µM and 0.0108 µM; in the assay with KM20L2 colon, 0.0458 µM; in the assay with M19-MEL melanoma, 0.0171 µM. The TGI in the assay with MCF7 breast stood at 0.089 µM; in the assay with PC-3 prostate, 0.00489 µM; in the assay on T-47D breast it was 0.0139 µM.

For `O=C([CH-]C(=O)c1ccccc1)c1ccccc1.O=C([CH-]C(=O)c1ccccc1)c1ccccc1.O=C([CH-]C(=O)c1ccccc1)c1ccccc1.[Cl-].[Zr+4]`, in the assay on KM20L2 colon, the GI50 is 33.2 µM and the TGI was greater than 100 µM.

With `C=C(CO)CC(/C=C(\C)CC/C=C(\C)CCl)OC(C)=O` (stereo not given), the TGI in the assay with DMS 273 small cell lung, in the assay with HCT-116 colon, in the assay on KM20L2 colon and with M19-MEL melanoma was greater than 100 µM throughout.

For the compound `COc1ccc2c(c1)[n+](=O)c(C(=O)CC(=O)C(=O)Nc1cccc(C)c1C)c(C)n2[O-]`, the TGI in the assay with HCT-116 colon, with HOP-18 NSCLC, in the assay with KM20L2 colon and in the assay with M19-MEL melanoma was greater than 100 µM throughout.

On to `O=C(/C=C\n1cnc(-c2cc(C(F)(F)F)cc(C(F)(F)F)c2)n1)N1CC(F)(F)C1`, for which the GI50 in the assay with BT-549 breast is 0.0336 µM; in the assay on DU-145 prostate, 1.69 µM; in the assay with HCT-116 colon, 0.4 µM; with MCF7 breast, 0.212 µM; in the assay on PC-3 prostate, 0.277 µM; with T-47D breast, 0.634 µM. The TGI with BT-549 breast is 0.223 µM; in the assay on DU-145 prostate, 12.1 µM; in the assay with HCT-116 colon, 4.45 µM; with MCF7 breast, 1.64 µM; in the assay on PC-3 prostate, 4.54 µM; in the assay with T-47D breast, greater than 21.6 µM.

Regarding `Cc1cccc(Nc2cc(Cl)nc(SCC(=O)O)n2)c1C`, the TGI in the assay on BT-549 breast, in the assay on DU-145 prostate, with HCT-116 colon, in the assay on MCF7 breast, in the assay on PC-3 prostate and in the assay with T-47D breast was greater than 100 µM each time.

Regarding `Cc1nc(Sc2nc3ccc([N+](=O)[O-])cc3s2)sc1C`, the GI50 with BT-549 breast was 0.989 µM; in the assay on DU-145 prostate, 3.99 µM; in the assay with HCT-116 colon, 1.06 µM; in the assay on MCF7 breast it was 0.705 µM; with PC-3 prostate, 1.15 µM; with T-47D breast it was 1.32 µM. In addition, the TGI is 2.85 µM with BT-549 breast; 15.4 µM in the assay on DU-145 prostate; 2.49 µM in the assay on HCT-116 colon; 10.1 µM with MCF7 breast; 7.63 µM in the assay with PC-3 prostate; 6.17 µM in the assay on T-47D breast.

On to `CCOC(=O)C1=C(C(=O)OCC)C2(c3ccccc3)N(O1)c1ccccc1C2(C)C` (stereo not given), for which the TGI is greater than 100 µM in the assay with HCT-116 colon, 83.3 µM in the assay on HOP-18 NSCLC, greater than 100 µM in the assay on KM20L2 colon and greater than 100 µM in the assay with M19-MEL melanoma.

With `CCN(CC)c1ccc(/C=N/NC(=O)CSc2nc3ccccc3c(=O)n2Cc2ccc(S(N)(=O)=O)cc2)c(O)c1`, the GI50 with BT-549 breast was 2.68 µM; in the assay with DU-145 prostate, 0.944 µM; in the assay on HCT-116 colon, 0.363 µM; in the assay with MCF7 breast, 0.457 µM; with PC-3 prostate it was 0.829 µM; with T-47D breast, 0.925 µM. Also, the TGI in the assay with BT-549 breast, with DU-145 prostate, with HCT-116 colon, in the assay with MCF7 breast, in the assay with PC-3 prostate and in the assay with T-47D breast was greater than 100 µM in each case.

On to `NCCOc1ncccc1/C=C1\c2ccccc2-c2ccc([N+](=O)[O-])cc21`, for which the GI50 in the assay on BT-549 breast was 0.181 µM; with DU-145 prostate, 0.0193 µM; in the assay on HCT-116 colon it was 0.0455 µM; with MCF7 breast, less than 0.0109 µM; with PC-3 prostate, 0.177 µM; in the assay on T-47D breast, 0.0283 µM. Besides, the TGI in the assay with BT-549 breast was 0.994 µM; in the assay with DU-145 prostate it was 0.224 µM; in the assay on HCT-116 colon it was 0.237 µM; in the assay with MCF7 breast, 0.409 µM; with PC-3 prostate, 1.11 µM; in the assay on T-47D breast, 0.305 µM.

With `O=C(N/C(=C/c1cccc([N+](=O)[O-])c1)c1nc2ccc(Cl)cc2[nH]1)c1ccccc1`, the TGI with HCT-116 colon is 25.8 µM; in the assay with HOP-18 NSCLC, greater than 100 µM; in the assay on KM20L2 colon, 45.4 µM; in the assay with M19-MEL melanoma it was greater than 100 µM.

`COC(=O)CC(=O)NCC1=CCC(=O)CC1`: the TGI in the assay on DMS 273 small cell lung, in the assay with HCT-116 colon and with M19-MEL melanoma was greater than 100 µM each time.

Regarding `Cn1cc(C2=C(c3ccccc3C(F)(F)F)C(=O)NC2=O)c2ccccc21`, the GI50 with BT-549 breast was 11 µM; in the assay with DU-145 prostate, 12.5 µM; in the assay on HCT-116 colon it was 6.59 µM; in the assay on MCF7 breast, 7.47 µM; with PC-3 prostate, 6.13 µM; in the assay on T-47D breast it was 7.68 µM. Also, the TGI in the assay with BT-549 breast, in the assay with DU-145 prostate, in the assay with HCT-116 colon, with MCF7 breast, in the assay with PC-3 prostate and with T-47D breast was greater than 25 µM throughout.

As to `NC(=S)N/N=C1/CN(c2ccc(Cl)c(Cl)c2)CC(=O)C1c1nc2ccccc2s1` (stereo not given), the TGI in the assay with DMS 273 small cell lung, in the assay on HCT-116 colon, with KM20L2 colon and in the assay on M19-MEL melanoma was greater than 100 µM in each case.

Turning to `CC(C)=C1CCC(CN2CCOCC2)C1=O` (stereo not given), the TGI is 31.8 µM in the assay on BT-549 breast; 30.4 µM in the assay with DU-145 prostate; 15.8 µM with HCT-116 colon; 23.8 µM in the assay with HOP-18 NSCLC; 31.4 µM with KM20L2 colon; greater than 58.9 µM with M19-MEL melanoma. For the same compound, the results for the TGI in the assay with MCF7 breast and in the assay with PC-3 prostate were 22.5 µM and 34.1 µM, respectively.

In the case of `CC1=C(C#N)C(/C=C(\Cl)c2ccc(F)cc2)C(C#N)=C(C)N1`, the GI50 in the assay on BT-549 breast, with DU-145 prostate, in the assay with HCT-116 colon, with MCF7 breast, in the assay on PC-3 prostate and in the assay with T-47D breast was greater than 100 µM throughout. For the same compound, the TGI in the assay on BT-549 breast, with DU-145 prostate, with HCT-116 colon, with MCF7 breast, in the assay with PC-3 prostate and with T-47D breast was greater than 100 µM throughout.
